# Structures can show the parent of a compound that is named as a salt.
# Key:
# [1] = Stability / clarity of reconstituted aqueous solution; assay type: physicochemical
# Experimental: Stability: 15 mg salt was reconstituted with 10 ml sterile water.
# The product salt may be reconstituted with water to give a 5-7.5 mg/ml solution which remains clear at 17°C for at least 6 hours.
# (§1) The above mixture can be rapidly (<3 min.) reconstituted with sterile water. The 50 mg/ml solution and 1, 2, 5 and 10 mg/ml dilutions remain clear for at least 24 hours at 15-20°C.
# (§2) The above mixture is made according to the general procedure of Example 5.
# [2] = Solubility in water; assay type: physicochemical
# [3] = Reconstitution time with water; assay type: physicochemical; settings: 5, 7.5 and 10 mg/ml; at 24°C (75°F)
# Experimental: Reconstituted aqueous solutions of 5, 7.5 and 10 mg/ml were readily obtained with 3 minutes shaking at 24°C (75°F). Solubility of the salt in water at room temperature is at least 15 mg/ml.
# as §1, §2
# [4] = prior art statement; cited from earlier work
# [5] = Compatibility with ions in aqueous solution; assay type: physicochemical; settings: insoluble precipitates form
# Experimental: The solid compositions (all three types) provided according to the present invention are reconstituted with sterile water or sterile aqueous vehicle. The preferred unit dosage forms described above may, for example, be reconstituted with one milliliter of sterile water or sterile aqueous vehicle to form relatively concentrated m-AMSA solutions or such solutions may be diluted to form more dilute (e.g. 5 mg/ml m-AMSA activity) solutions. […] Reconstitution, therefore, should be effected with vehicles substantially free of the above-mentioned ions.
# Caution: Solutions of m-AMSA are incompatible with chloride, sulfate, phosphate and carbonate ions. Precipitates form.
# [6] = tested on: animal tumor systems; settings: Cain, et al., Europ. J. Cancer 10:539-549 (1974); cited from earlier work
smiles,measurement,setting,value
"COc1cc(NS(C)(=O)=O)ccc1Nc1c2ccccc2nc2ccccc12 [Preparation 6, Crystalline DL-Monolactate acetone solvate of m-AMSA]",time solution remains clear,[1]; 5-7.5 mg/ml solution in water at 17°C,at least 6 hours
same,solubility,[2]; at room temperature,≥ 15 mg/mL
same,shaking time to obtain reconstituted aqueous solutions,[3],3 min
"COc1cc(NS(C)(=O)=O)ccc1Nc1c2ccccc2nc2ccccc12 [Preparation 9, Crystalline m-AMSA monogluconate salt]",solubility,[2]; at 50-60°C,30 mg/mL
COc1cc(NS(C)(=O)=O)ccc1Nc1c2ccccc2nc2ccccc12.Cl [monohydrochloride],solubility in water (in words),[4],insufficiently water-soluble
COc1cc(NS(C)(=O)=O)ccc1Nc1c2ccccc2nc2ccccc12.CS(=O)(=O)O [monomethanesulfonate],solubility in water (in words),[4],insufficiently water-soluble
"COc1cc(NS(C)(=O)=O)ccc1Nc1c2ccccc2nc2ccccc12 [Preparation 4, Crystalline L(+)-Monolactate hemiacetonate of m-AMSA]",activity loss,"[1]; 15 mg salt in 10 ml sterile water, after 2 weeks storage at 45°C",< 6%
same,Stability: time the solution was stable,[1]; 15 mg salt reconstituted with 10 ml sterile water,at least 24 hours
"COc1cc(NS(C)(=O)=O)ccc1Nc1c2ccccc2nc2ccccc12 [m-AMSA, 4'-(9-acridinylamino)-methanesulfon-m-anisidide]","compatibility in aqueous solution with chloride, sulfate, phosphate and carbonate ions",[5],incompatible
same,antitumor activity,[6],significant antitumor activity
same,solubility in water (in words),[4],very limited
